The record followed here is publication PMC10515382, “Aminochalcones Attenuate Neuronal Cell Death under Oxidative Damage via Sirtuin 1 Activity” (ACS Omega, 2023).

Data set [1] relates to H2O2-induced SH-SY5Y cells. Put plainly: Cell viability in H2O2-induced SH-SY5Y cells (MTT assay). Particulars: 5 μM pretreatment 3 h, then 400 μM H2O2 24 h; for protective effect on cell viability: vs nonpretreated group. The class given is cell-based, human. On the procedure: Cell viability was evaluated using the MTT assay. […] Cells were pretreated for 3 h with aminochalcones or resveratrol at various concentrations ranging from 0 to 100 μM before being incubated with 400 μM H2O2 (Sigma-Aldrich, Cat. no. 31642) for 24 h. Cells treated only with culture media, DMEM with 10% FBS, were used as the control. Each well received 5 mg/mL of MTT solution at the end of the incubation time, and the samples were then incubated at 37 °C in the dark for 2–4 h. Following the removal of the solution, 0.04 N HCl in isopropyl alcohol was added to dissolve the formazan crystals. A microplate reader programed to read at 570 nm was used to detect the MTT formazan product. The absorbance of formazan is directly proportional to the number of viable cells. The viability of the cells was expressed in percentages compared with the viability of the control group.[23]
For orientation: Tetrazolium assays rely on reduction of a dye to a coloured formazan, in cell work by metabolically active cells.

The test system of data set [2] is H2O2-induced SH-SY5Y cells. Put plainly: LDH assay of cell membrane damage in H2O2-induced SH-SY5Y cells. The class given is cell-based, human. The following applies: 5 μM pretreatment, vs H2O2 alone. On the procedure:
LDH leakage into the culture medium of aminochalcones with or without H2O2-treated cells was assessed by using an LDH assay kit to determine the neuroprotective effect of aminochalcones against H2O2-induced cell damage. To prepare samples for the LDH test, 2 mL of SH-SY5Y cells at 1.0 × 10^5 cells/mL concentration was added and incubated overnight in 6-well plates at 37 °C. Then, each well was pretreated for 3 h with 5 μM aminochalcones or resveratrol before exposure to 400 μM H2O2 for another 24 h. Subsequently, the LDH assay kit (Cat. no. MAK066) from Sigma-Aldrich (St. Louis, MO, USA) was used to measure the LDH activity, following the manufacturer’s instructions. The assay relies on the conversion of lactate to pyruvate by the enzyme lactate dehydrogenase and further produces NADH as a product, giving rise to an increase in absorbance at 450 nm.

The subject of data set [3] is H2O2-induced SH-SY5Y cells. Put plainly: Cell morphology observation in H2O2-induced SH-SY5Y cells. The class given is cell-based, human. The following applies: 5 μM pretreatment 3 h, then 400 μM H2O2 24 h. On the procedure: After adhering, the cells were treated with aminochalcones for 3 h. The culture media was refreshed, followed by an additional 24 h of exposure to 400 μM H2O2.

The nature of data set [4]: Cytotoxicity assay (MTT) against MRC-5 cells. The format is cell-based. The following applies: human, MRC-5 cells (normal embryonic lung cell line), read-out: Cytotoxic activity (IC50). The protocol:
MRC-5 cells were grown in DMEM supplemented with 100 U/mL penicillin–streptomycin and 10% FBS. Briefly, the cells suspended in the corresponding culture medium were inoculated in 96-well microtiter plates (Corning Inc., NY, USA) at 10,000–20,000 cells per well and then incubated at 37 °C under a humidified atmosphere with 5% CO2 for 24 h. An equal volume of additional medium containing serial dilutions of test compounds, positive control (doxorubicin), or negative control (DMSO) was added to the desired final concentrations. Microtiter plates were further incubated for 48 h. The cell viability in each well was determined by staining with the MTT assay reagent (Molecular Probes, Cat. no. M6494).[75]–[77] MTT solution ([…]) was added to all wells of the assay, and the plates were incubated for 2–4 h. Subsequently, DMSO was added to dissolve the resulting formazan by sonication. The plates were read on a microplate reader (Molecular Devices, USA) using a test wavelength of 550 nm and a reference wavelength of 650 nm. The IC50 value was determined as the concentration of compound that inhibited the cell growth by 50%.

The test system of data set [5] is H2O2-induced SH-SY5Y cells. Nature of the data set: Mitochondrial membrane potential (Rhodamine-123) in H2O2-induced SH-SY5Y cells. The following applies: 5 μM pretreatment, vs H2O2 alone. The class given is cell-based, human. On the procedure: Mitochondrial-specific fluorescent dye, Rhodamine-123 (Sigma-Aldrich, Cat. no. R8004), was used to determine the MMP. The reduction in the fluorescence signal correlated with the decrease in MMP, which referred to a decrease in the mitochondrial function. SH-SY5Y cells (200 μL) at 1.0 × 10^5 cells/mL were plated onto the 96-well plate and incubated overnight at 37 °C. Then, each well was pretreated for 3 h with 5 μM aminochalcones or resveratrol before being challenged with 400 μM H2O2 for further 24 h. Cells were then exposed to Rhodamine-123 at a final concentration of 10 μM in the culture media and incubated at 37 °C for 30 min under dark conditions. At the end of incubation, cells were washed twice with PBS to remove the excess dye. MMP levels were then measured with a microplate reader at excitation and emission wavelengths of 488 and 525 nm, respectively. The MMP of the cells was expressed as percentages compared with the control group.[80]

Data set [6] relates to H2O2-induced SH-SY5Y cells. Put plainly: Intracellular ROS production (DCFDA) in H2O2-induced SH-SY5Y cells. The class given is cell-based, human. The following applies: for effect on intracellular ROS production: 5 μM pretreatment, vs H2O2 alone. On the procedure:
Green fluorescent DCF was generated by the oxidation of nonfluorescent carboxy-DCFDA, which is caused by intracellular ROS. SH-SY5Y cells (200 μL) at 1.0 × 10^5 cells/mL were seeded and incubated overnight in 96-well plates at 37 °C. Then, each well was pretreated for 3 h with 5 μM aminochalcones or resveratrol before exposure to 400 μM H2O2 for an additional 24 h. Subsequently, carboxy-H2DCFDA was introduced to the to a final concentration of 10 μM in the culture media and incubated at 37 °C for 30 min under dark conditions. Intracellular ROS production was instantly evaluated using a microplate reader at an emission wavelength of 528 nm and an excitation wavelength of 485 nm. The intracellular ROS production of the cells was expressed as percentages compared with the control group.[79]

A further data set deals with SH-SY5Y cells. Put plainly: SH-SY5Y cell viability, compounds alone (MTT assay). The class given is cell-based, human. The following applies: compounds alone at 10 μM, no H2O2. The protocol:
Cell viability was evaluated using the MTT assay. Briefly, 96-well plates were seeded with SH-SY5Y cells at a density of 1 × 10^5 cells/mL and allowed to attach. Cells were pretreated for 3 h with aminochalcones or resveratrol at various concentrations ranging from 0 to 100 μM before being incubated with 400 μM H2O2 (Sigma-Aldrich, Cat. no. 31642) for 24 h. Cells treated only with culture media, DMEM with 10% FBS, were used as the control. Each well received 5 mg/mL of MTT solution at the end of the incubation time, and the samples were then incubated at 37 °C in the dark for 2–4 h. Following the removal of the solution, 0.04 N HCl in isopropyl alcohol was added to dissolve the formazan crystals. A microplate reader programed to read at 570 nm was used to detect the MTT formazan product. The absorbance of formazan is directly proportional to the number of viable cells. The viability of the cells was expressed in percentages compared with the viability of the control group.[23]

Regarding `COc1ccc(/C=C/C(=O)c2ccc(N)cc2)c(OC)c1OC` [Compound 2, (E)-1-(4-Aminophenyl)-3-(2,3,4-trimethoxyphenyl)prop-2-en-1-one], the “protective effect on cell viability” value in data set [1] was “significantly improved the cell viability”. Also, the “effect on cell membrane damage” value in data set [2] is reported as “reduced cell membrane damage”. Moreover, the “effect on cell morphology” value in data set [3] is recorded as “prevented morphological aberration”. Besides, in data set [4], the IC50 (usually the point on the concentration scale where inhibition reaches its midpoint) at 48 h worked out at 99.3 ± 4.15 µM. Besides, in data set [5], the “effect on mitochondrial function” value is recorded as “prevented mitochondrial dysfunction”. Besides, in data set [6], the “effect on intracellular ROS production” value is “reduced intracellular ROS production”.

On to `COc1cc(/C=C/C(=O)c2ccc(N)cc2)cc(OC)c1OC` [Compound 3, (E)-1-(4-Aminophenyl)-3-(3,4,5-trimethoxyphenyl)prop-2-en-1-one], for which the “protective effect on cell viability” value in data set [1] is recorded as “significantly improved the cell viability”. In addition, the “effect on cell membrane damage” value in data set [2] is recorded as “reduced cell membrane damage”. In addition, the “effect on cell viability, compounds alone” value in the data set on SH-SY5Y cells is listed as “hazardous to the treated cells”. The “effect on cell morphology” value in data set [3] is “prevented morphological aberration”. The IC50 at 48 h in data set [4] came to 70.3 ± 3.78 µM. Further, the “effect on mitochondrial function” value in data set [5] is given as “prevented mitochondrial dysfunction”. For the same molecule, in data set [6], the “effect on intracellular ROS production” value is “reduced intracellular ROS production”.

Consider `COc1ccc(/C=C/C(=O)c2ccc(N)cc2)cc1O` [Compound 4, (E)-1-(4-Aminophenyl)-3-(3-hydroxy-4-methoxyphenyl)prop-2-en-1-one], for which the melting point (usually the temperature of the solid-liquid transition) was 187 to 189 °C. The “protective effect on cell viability” value in data set [1] was “low protective potential”. Moreover, the “effect on cell viability, compounds alone” value with SH-SY5Y cells is listed as “hazardous to the treated cells”. Moreover, the IC50 at 48 h in data set [4] turned out to be 115.3 ± 1.05 µM.

`COc1cccc(/C=C/C(=O)c2ccc(N)cc2)c1` [Compound 5, (E)-1-(4-Aminophenyl)-3-(3-methoxyphenyl)prop-2-en-1-one]: the “protective effect on cell viability” value in data set [1] is “significantly improved the cell viability”. Further, in data set [2], the “effect on cell membrane damage” value was “reduced cell membrane damage”. Moreover, the “effect on cell morphology” value in data set [3] is recorded as “prevented morphological aberration”. Further, in data set [4], the IC50 at 48 h is 116 ± 8.08 µM. Further, in data set [5], the “effect on mitochondrial function” value is “prevented mitochondrial dysfunction”. Besides, in data set [6], the “effect on intracellular ROS production” value is “reduced intracellular ROS production”.

For `COc1cccc2c1C(=O)c1c(O)c3c(c(O)c1C2=O)C[C@@](O)(C(=O)CO)C[C@@H]3O[C@H]1C[C@H](N)[C@H](O)[C@H](C)O1` [doxorubicin, reference compound], in data set [4], the IC50 at 48 h turned out to be 3.03 ± 0.09 µM.

Regarding `Oc1ccc(/C=C/c2cc(O)cc(O)c2)cc1` [resveratrol, reference compound], the viability (as a rule, a per cent measure of how many cells are alive, often set against a control) at 5 µM in data set [1] (Homo sapiens, SH-SY5Y, read-out: cell viability (percentage relative to control)) amounted to 85%. Further, in data set [3], the “effect on cell morphology” value is reported as “morphological alterations were reduced”. Moreover, the activity at 5 µM in data set [6] (Homo sapiens, SH-SY5Y, 5 μM pretreatment 3 h, then 400 μM H2O2 24 h, H2O2 alone 135.54%, read-out: intracellular ROS production (fluorescence intensity, % of control)) came out at 123 ± 2%.
